# Test results as given in patent US20180251431A1 (VERTEX PHARMACEUTICALS INCORPORATED, priority 2016, published 2018).
# Where two headings read alike, the source gives them in different places.
# Tested on: HEK293 cells
# Assay: HEK293 VLCFA-LPC IC50 determination (13C-labeled C26:0 LPC by UHPLC/MS)
# Format: cell-based, human
# Settings: Homo sapiens, average of one or more replicates, read-out: Average HEK293 IC50
# Method in brief: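 Suspension HEK293 cells (final 0.5 million/mL after mixing with equal volume) incubated 48 hours with compound plus 13C-acetate (1.0 mg/mL in added media), shaking at 37° C. Lipids extracted with hexane/isopropanol or methanol, C13:0 LPC standard. UHPLC/MS of 13C-labeled C26:0 LPC (638.500/104.100 m/z); IC50 by four-parameter fit.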
# [1] = HEK293, 48 h, 13C-labeled C26:0 LPC, 48 hours
Structure (SMILES),"IC50 (HEK293, HEK293 cells) [nM]",IC50 [1] [nM]
"O=C(Nc1ccn(-c2cccc(Cl)c2)n1)C1(c2ncccc2F)CC1 [Compound 418, N-(1-(3-chlorophenyl)-1H-pyrazol-3-yl)-1-(3-fluoropyridin-2-yl)cyclopropane-1-carboxamide]",100,
"O=C(Nc1ccn(-c2ccncc2)n1)C1(c2ncccc2F)CC1 [Compound 422, 1-(3-fluoro-2-pyridyl)-N-[1-(4-pyridyl)pyrazol-3-yl]cyclopropanecarboxamide]",200,
"O=C(Nc1ccn(-c2cncc(F)c2)n1)C1(c2ncccc2F)CC1 [Compound 423, 1-(3-fluoropyridin-2-yl)-N-(1-(5-fluoropyridin-3-yl)-1H-pyrazol-3-yl)cyclopropane-1-carboxamide]",46,
"O=C(Nc1ccn(-c2cnoc2)n1)C1(c2ccccc2F)CC1 [Compound 424, 1-(2-fluorophenyl)-N-(1-(isoxazol-4-yl)-1H-pyrazol-3-yl)cyclopropane-1-carboxamide]",> 5000,
"Cn1cnc(-n2ccc(NC(=O)C3(c4ccccc4F)CC3)n2)n1 [Compound 425, 1-(2-fluorophenyl)-N-[1-(1-methyl-1,2,4-triazol-3-yl)pyrazol-3-yl]cyclopropanecarboxamide]",> 5000,
"Cn1cncc1-n1ccc(NC(=O)C2(c3ccccc3F)CC2)n1 [Compound 426, 1-(2-fluorophenyl)-N-[1-(3-methylimidazol-4-yl)pyrazol-3-yl]cyclopropanecarboxamide]",> 2000,
"Cn1cnnc1-n1ccc(NC(=O)C2(c3ccccc3F)CC2)n1 [Compound 427, 1-(2-fluorophenyl)-N-[1-(4-methyl-1,2,4-triazol-3-yl)pyrazol-3-yl]cyclopropanecarboxamide]",> 2000,
COc1ccc(-n2ccc(NC(=O)C3(c4ccccc4F)CC3)n2)c(OC)c1 [Compound 428],> 5000,
"COc1cc(F)ccc1-n1ccc(NC(=O)C2(c3ccccc3F)CC2)n1 [Compound 429, N-[1-(4-fluoro-2-methoxy-phenyl)pyrazol-3-yl]-1-(2-fluorophenyl)cyclopropanecarboxamide]",> 5000,
"CCOc1ccc(-n2ccc(NC(=O)C3(c4ccccc4F)CC3)n2)cn1 [Compound 430, N-[1-(6-ethoxy-3-pyridyl)pyrazol-3-yl]-1-(2-fluorophenyl)cyclopropanecarboxamide]",> 5000,
"CNc1ncc(-n2ccc(NC(=O)C3(c4ccccc4F)CC3)n2)cc1F [Compound 431, N-[1-[5-fluoro-6-(methylamino)-3-pyridyl]pyrazol-3-yl]-1-(2-fluorophenyl)cyclopropanecarboxamide]",860,
"[2H]C([2H])([2H])Oc1cc(-n2ccc(NC(=O)C3(c4ccccc4F)CC3)n2)ccn1 [Compound 439, 1-(2-fluorophenyl)-N-[1-[2-(trideuteriomethoxy)-4-pyridyl]pyrazol-3-yl]cyclopropanecarboxamide]",80,
"[2H]C([2H])([2H])Oc1ccc(-n2ccc(NC(=O)C3(c4ccccc4F)CC3)n2)cn1 [Compound 440, 1-(2-fluorophenyl)-N-[1-[6-(trideuteriomethoxy)-3-pyridyl]pyrazol-3-yl]cyclopropanecarboxamide]",52,
"[2H]C([2H])([2H])Oc1ncc(-n2ccc(NC(=O)C3(c4ccccc4F)CC3)n2)cc1F [Compound 441, 1-(2-fluorophenyl)-N-[1-[5-fluoro-6-(trideuteriomethoxy)-3-pyridyl]pyrazol-3-yl]cyclopropanecarboxamide]",44,
"COc1ncc(-n2nc(NC(=O)C3(c4ccccc4F)CC3)cc2F)cc1F [Compound 442, N-[5-fluoro-1-(5-fluoro-6-methoxy-3-pyridyl)pyrazol-3-yl]-1-(2-fluorophenyl)cyclopropanecarboxamide]",> 5000,
"O=C(Nc1ccn(-c2ccccc2)n1)C1(c2ccccc2)CC1CO (centres unmarked) [Compound 444, 2-(hydroxymethyl)-1-phenyl-N-(1-phenyl-1H-pyrazol-3-yl)cyclopropane-1-carboxamide]",,260
"O=C(Nc1nn(-c2cncc(F)c2)cc1F)C1(c2ccccc2)CC1 [Compound 445, N-[4-fluoro-1-(5-fluoro-3-pyridyl)pyrazol-3-yl]-1-phenyl-cyclopropanecarboxamide]",,1400
"COc1cc(-n2ccc(NC(=O)C3(c4ccccc4F)CC3)n2)cnn1 [Compound 447, 1-(2-fluorophenyl)-N-[1-(6-methoxypyridazin-4-yl)pyrazol-3-yl]cyclopropanecarboxamide]",,> 5000
"O=C(Nc1ccn(-c2ccc(F)cc2F)n1)C1(c2ccccc2F)CC1 [Compound 448, N-[1-(2,4-difluorophenyl)pyrazol-3-yl]-1-(2-fluorophenyl)cyclopropanecarboxamide]",140,
"CCOc1cc(-n2ccc(NC(=O)C3(c4ccccc4F)CC3)n2)ccn1 [Compound 449, N-[1-(2-ethoxy-4-pyridyl)pyrazol-3-yl]-1-(2-fluorophenyl)cyclopropanecarboxamide]",> 5000,
"Cc1cc(F)ccc1-n1ccc(NC(=O)C2(c3ncccc3F)CC2)n1 [Compound 450, N-(1-(4-fluoro-2-methylphenyl)-1H-pyrazol-3-yl)-1-(3-fluoropyridin-2-yl)cyclopropane-1-carboxamide]",> 5000,

Structure (SMILES),"IC50 (HEK293, HEK293 cells) [nM]",IC50 [1] [nM]
"Cc1cc(NC(=O)C2(c3ncccc3F)CC2)nn1-c1ccc(F)cc1F [Compound 451, N-[1-(2,4-difluorophenyl)-5-methyl-pyrazol-3-yl]-1-(3-fluoro-2-pyridyl)cyclopropanecarboxamide]",2400,
"COc1ncc(-n2ccc(NC(=O)C3(c4ncccc4F)CC3)n2)cc1F [Compound 452, N-[1-(5-fluoro-6-methoxy-3-pyridyl)pyrazol-3-yl]-1-(3-fluoro-2-pyridyl)cyclopropanecarboxamide]",54,
O=C(Nc1ccn(-c2ncccc2Cl)n1)C1(c2ncccc2F)CC1 [Compound 453],> 5000,
"COc1ncc(-n2ccc(NC(=O)C3(c4ncccc4F)CC3)n2)cn1 [Compound 454, 1-(3-fluoro-2-pyridyl)-N-[1-(2-methoxypyrimidin-5-yl)pyrazol-3-yl]cyclopropanecarboxamide]",> 5000,
"O=C(Nc1ccn(-c2cncc(Cl)c2)n1)C1(c2ncccc2F)CC1 [Compound 455, N-[1-(5-chloro-3-pyridyl)pyrazol-3-yl]-1-(3-fluoro-2-pyridyl)cyclopropanecarboxamide]",100,
"O=C(Nc1ccn(-c2ccc(F)cc2)n1)C1(c2ncccc2F)CC1 [Compound 456, N-[1-(4-fluorophenyl)pyrazol-3-yl]-1-(3-fluoro-2-pyridyl)cyclopropanecarboxamide]",100,
"O=C(Nc1ccn(-c2ccc(C(F)(F)F)cc2)n1)C1(c2ncccc2F)CC1 [Compound 457, 1-(3-fluoro-2-pyridyl)-N-[1-[4-(trifluoromethyl)phenyl]pyrazol-3-yl]cyclopropanecarboxamide]",> 5000,
"O=C(Nc1ccn(-c2cccnn2)n1)C1(c2ncccc2F)CC1 [Compound 458, 1-(3-fluoro-2-pyridyl)-N-(1-pyridazin-3-ylpyrazol-3-yl)cyclopropanecarboxamide]",940,
"O=C(Nc1ccn(-c2cncnc2)n1)C1(c2ncccc2F)CC1 [Compound 459, 1-(3-fluoro-2-pyridyl)-N-(1-pyrimidin-5-ylpyrazol-3-yl)cyclopropanecarboxamide]",920,
"O=C(Nc1ccn(-c2ncccc2F)n1)C1(c2ncccc2F)CC1 [Compound 460, 1-(3-fluoro-2-pyridyl)-N-[1-(3-fluoro-2-pyridyl)pyrazol-3-yl]cyclopropanecarboxamide]",> 2000,
"O=C(Nc1ccn(-c2cc(F)cc(F)c2)n1)C1(c2ncccc2F)CC1 [Compound 461, N-[1-(3,5-difluorophenyl)pyrazol-3-yl]-1-(3-fluoro-2-pyridyl)cyclopropanecarboxamide]",76,
"O=C(Nc1cc(F)n(-c2cncc(F)c2)n1)C1(c2ncccc2F)CC1 [Compound 462, N-[5-fluoro-1-(5-fluoro-3-pyridyl)pyrazol-3-yl]-1-(3-fluoro-2-pyridyl)cyclopropanecarboxamide]",> 5000,
"O=C(Nc1cc(F)n(-c2cncc(F)c2)n1)C1(c2ccccc2F)CC1 [Compound 463, N-[5-fluoro-1-(5-fluoro-3-pyridyl)pyrazol-3-yl]-1-(2-fluorophenyl)cyclopropanecarboxamide]",> 5000,
"O=C(Nc1ccn(-c2cncc(F)c2)n1)C1(c2ccccn2)CC1 [Compound 464, N-[1-(5-fluoro-3-pyridyl)pyrazol-3-yl]-1-(2-pyridyl)cyclopropanecarboxamide]",130,
O=C(Nc1ccn(-c2cncc(F)c2)n1)C1(c2cccc(OC(F)(F)F)c2)CC1 [Compound 465],24,
"O=C(Nc1ccn(-c2cncc(F)c2)n1)C1(c2ccc(F)cn2)CC1 [Compound 466, 1-(5-fluoro-2-pyridyl)-N-[1-(5-fluoro-3-pyridyl)pyrazol-3-yl]cyclopropanecarboxamide]",560,
"COc1cc(-n2ccc(NC(=O)C3(c4ccccc4F)CC3)n2)c(F)cn1 [Compound 467, N-[1-(5-fluoro-2-methoxy-4-pyridyl)pyrazol-3-yl]-1-(2-fluorophenyl)cyclopropanecarboxamide]",2700,
"COc1cc(-n2ccc(NC(=O)C3(c4ccccc4F)CC3)n2)ccc1F [Compound 468, N-[1-(4-fluoro-3-methoxy-phenyl)pyrazol-3-yl]-1-(2-fluorophenyl)cyclopropanecarboxamide]",> 5000,
"COc1ccncc1-n1ccc(NC(=O)C2(c3ccccc3F)CC2)n1 [Compound 469, 1-(2-fluorophenyl)-N-[1-(4-methoxy-3-pyridyl)pyrazol-3-yl]cyclopropanecarboxamide]",> 2000,
COc1ccc(-n2ccc(NC(=O)C3(c4ccccc4F)CC3)n2)c(F)c1 [Compound 470],> 2000,
